The values below come from US7468384B2, “Microbicidal composition” (Rohm and Haas Company, priority 2004, dated 2008).

Where two headings read alike, the source gives them in different places.

Assay type in all cases: cell-based
Test [1] deals with Aspergillus niger (A. niger—ATCC 16404). The test is described as follows: Synergy test, microtiter plate high resolution MIC assay, mold. The following applies: for MIC: Aspergillus niger. The arrangement: key to SI (calculated synergy index) / SI (synergy index): SI = Qa/QA + Qb/QB (mixture vs. alone end-point concentrations). From the text: (§1) One measure of synergism is the industrially accepted method described by Kull, F. C.; Eisman, P. C.; Sylwestrowicz, H. D. and Mayer, R. L., in Applied Microbiology 9:538-541 (1961), using the ratio determined by the formula: Qa/QA+Qb/QB=Synergy Index (“SI”) wherein: • QA=concentration of compound A (first component) in ppm, acting alone, which produced an end point (MIC of Compound A). • Qa=concentration of compound A in ppm, in the mixture, which produced an end point. • QB=concentration of compound B (second component) in ppm, acting alone, which produced an end point (MIC of Compound B). • Qb=concentration of compound B in ppm, in the mixture, which produced an end point.
(§2) When the sum of Qa/QA and Qb/QB is greater than one, antagonism is indicated. […] The lower the SI, the greater the synergy shown by that particular mixture. The minimum inhibitory concentration (MIC) of a microbicide is the lowest concentration tested under a specific set of conditions that prevents the growth of added microorganisms.
(§3) Synergy tests were conducted using standard microtiter plate assays with media designed for optimal growth of the test microorganism. Soybean Casein Digest Broth (Tryptic Soy Broth, TSB medium) or minimal salt medium supplemented with 0.2% glucose and 0.1% yeast extract (M9GY medium) was used for testing bacteria; Potato Dextrose Broth (PDB medium) was used for testing yeast and mold. In this method, a wide range of combinations of microbicides was tested by conducting high resolution MIC assays in the presence of various concentrations of MI. High resolution MICs were determined by adding varying amounts of microbicide to one column of a microtitre plate and doing subsequent ten-fold dilutions using an automated liquid handling system to obtain a series of endpoints ranging from 2 ppm to 10,000 ppm active ingredient.
(§4) For MI combinations, the synergy of the combinations of the present invention was determined against two bacteria, Escherichia coli (E. coli—ATCC #8739) or Pseudomonas aeruginosa (P. aeruginosa—ATCC #15442), a yeast, Candida albicans (C. albicans—ATCC 10231), and a mold, Aspergillus niger (A. niger—ATCC 16404). The bacteria were used at a concentration of about 5×10^6 bacteria per mL and the yeast and mold at 5×10^5 fungi per mL. These microorganisms are representative of natural contaminants in many consumer and industrial applications. […] (bacteria).
(§5) For BIT combinations, the synergy of the combinations of the present invention was determined against a bacterium, Pseudomonas aeruginosa (P. aeruginosa—ATCC #15442), a yeast, Candida albicans (C. albicans—ATCC 10231), and a mold, Aspergillus niger (A. niger—ATCC 16404). The bacteria were used at a concentration of about 5×10^6 bacteria per mL and the yeast and mold at 5×10^5 fungi per mL. These microorganisms are representative of natural contaminants in many consumer and industrial applications. […] (yeast and mold) or 30° C. (bacteria).

Test [2] deals with Pseudomonas aeruginosa (P. aeruginosa—ATCC #15442). Nature of the test: Synergy test, microtiter plate high resolution MIC assay, bacterium. The arrangement: key to SI (calculated synergy index) / SI (synergy index): SI = Qa/QA + Qb/QB (mixture vs. alone end-point concentrations). The settings on record: P. aeruginosa 15442, M9GY; for Qb: alone or mixed with BIT; for MIC: Pseudomonas aeruginosa.
From the text: as §1, §2, §3, §4, §5

The test system of test [3] is Candida albicans (C. albicans—ATCC 10231). Nature of the test: Synergy test, microtiter plate high resolution MIC assay, yeast. The following applies: C. albicans 10231, PDB; for Qb: alone or mixed with BIT.
From the text: as §1, §2, §3, §4, §5

Test [4] concerns Escherichia coli (E. coli—ATCC #8739). The test is described as follows: Synergy test, microtiter plate high resolution MIC assay, bacterium. The following applies: E. coli 8739, M9GY; for Qb: alone or mixed with BIT.
From the text: as §1, §2
as §3, with “In this method, a wide range of combinations of microbicides was tested by conducting high resolution MIC assays in the presence of various concentrations of MI.” left out
as §4

Setting [5] is: benzyl alcohol concentration giving end point (MIC), 48 hours.
The mark [6] stands for this setting: synergy index BIT + benzyl alcohol, 48 hours.
Where [7] appears, read: caprylyl glycol concentration giving end point (MIC), 24 hours.
Setting [8] is: synergy index BIT + caprylyl glycol, 24 hours.
[9] abbreviates: diazolidinyl urea concentration giving end point (MIC), 48 hours.
The mark [10] stands for this setting: synergy index BIT + diazolidinyl urea, 48 hours.

In the case of `CNC(=O)c1ccccc1SSc1ccccc1C(=O)NC` [2,2′-dithiobis(N-methylbenzamide)], in test [1] (ATCC16404, 72 h, 2,2′-dithiobis(N-methylbenzamide) concentration giving end point (MIC), alone or mixed with BIT, A. niger 16404, PDB, 3 days, read-out: Qb), the MIC was 1000 µg/mL. In addition, the SI is reported as 1.00 in test [1] (synergy index BIT + 2,2′-dithiobis(N-methylbenzamide), A. niger 16404, PDB, 3 days) and 1.00 in test [2] (synergy index BIT + 2,2′-dithiobis(N-methylbenzamide), 48 hours). Besides, the Qb in test [2] (2,2′-dithiobis(N-methylbenzamide) concentration giving end point (MIC), 48 hours) is reported as 200 ppm.

Regarding `OCc1ccccc1` [Benzyl alcohol], in test [1] (ATCC16404, 168 h, benzyl alcohol concentration giving end point (MIC), alone or mixed with BIT, A. niger 16404, PDB, 1 week, read-out: Qb), the MIC was 5000 µg/mL. For the same compound, the SI is reported as 1.00 in test [1] (synergy index BIT + benzyl alcohol, A. niger 16404, PDB, 1 week); 1.00 in test [3] (setting [6]); 1.00 in test [2] (setting [6]); 1.00 in test [4] (synergy index BIT + benzyl alcohol, 24 hours). In addition, the Qb in test [3] (setting [5]) is 4000 ppm; in test [2] (setting [5]), 200 ppm; in test [4] (benzyl alcohol concentration giving end point (MIC), 24 hours), 4000 ppm.

As for `CCCCCCC(O)CO` (stereo not shown) [Caprylyl glycol], the “MIC of component acting alone (QA / QB)” value is given as 3000 ppm in test [1] (A. niger 16404, PDB, 1 week); 2000 ppm in test [3] (48 hours); 3000 ppm in test [2] (48 hours); 2000 ppm in test [4] (24 hours). Besides, the Qb was 2000 ppm in test [1] (caprylyl glycol concentration giving end point (MIC), alone or mixed with BIT, A. niger 16404, PDB, 1 week); 2000 ppm in test [3] (setting [7]); 3000 ppm in test [2] (setting [7]); 2000 ppm in test [4] (setting [7]). In addition, the SI is 1.00 in test [1] (synergy index BIT + caprylyl glycol, A. niger 16404, PDB, 1 week); 1.00 in test [3] (setting [8]); 1.00 in test [2] (setting [8]); 1.00 in test [4] (setting [8]).

Turning to `O=C(NCO)N(CO)C1(CO)C(=O)NC(=O)N1CO` (stereo not shown) [Diazolidinyl urea], in test [1] (ATCC16404, 72 h, diazolidinyl urea concentration giving end point (MIC), alone or mixed with BIT, A. niger 16404, PDB, 3 days, read-out: Qb), the MIC is 1000 µg/mL. For the same compound, the SI is 1.00 in test [1] (synergy index BIT + diazolidinyl urea, A. niger 16404, PDB, 3 days); 1.00 in test [3] (synergy index BIT + diazolidinyl urea, 24 hours); 1.00 in test [2] (setting [10]); 1.00 in test [4] (setting [10]). In addition, the Qb in test [3] (diazolidinyl urea concentration giving end point (MIC), 24 hours) was 2000 ppm; in test [2] (setting [9]), 80 ppm; in test [4] (setting [9]), 100 ppm.

With `O=C(O)CN(CCN(CC(=O)O)CC(=O)O)CC(=O)O` [EDTA, ethylenediamine tetraacetic acid], in test [1] (ATCC16404, 96 h, read-out: Qb), the MIC was 2000 µg/mL. Further, the SI in test [1] (synergy index BIT + EDTA, A. niger 16404, PDB, 4 days) is recorded as 1.00.

For the compound `O=C([O-])CNCO.[Na+]` [Sodium hydroxymethylglycinate], the MIC in test [1] (ATCC16404, 72 h, read-out: Qb (second component at end point, MIC)) is 600 µg/mL; in test [2] (ATCC15442, 24 h, read-out: Qb (second component at end point, MIC), Table 27, Sodium hydroxymethylglycinate with BIT, 24 hours, alone where Qa = 0) it was 2000 µg/mL. Moreover, the “SI (synergy index)” value in test [1] (Table 27, A. niger 16404, PDB, 3 days) is reported as 1.00; in test [2] (Table 27, 24 hours) it was 1.00.

With `CCOC(=O)c1ccc(O)cc1` [ethylparaben], the MIC in test [1] (ATCC16404, 72 h, ethylparaben concentration giving end point (MIC), alone or mixed with BIT, A. niger 16404, PDB, 3 days, read-out: Qb) is 2000 µg/mL. Also, the SI in test [1] (synergy index BIT + ethylparaben, A. niger 16404, PDB, 3 days) was 1.00; in test [2] (synergy index BIT + ethylparaben, 48 hours), 1.00. Further, the Qb in test [2] (ethylparaben concentration giving end point (MIC), 48 hours) is recorded as 3000 ppm.

On to `COC(=O)c1ccc(O)cc1` [methylparaben], for which, in test [1] (ATCC16404, 96 h, read-out: Qb), the MIC was 800 µg/mL. Besides, the SI in test [1] (synergy index BIT + methylparaben, A. niger 16404, PDB, 4 days) was 1.00; in test [2] (synergy index BIT + methylparaben, 48 hours), 1.00. Moreover, the Qb in test [2] (methylparaben concentration giving end point (MIC), 48 hours) is reported as 3000 ppm.

Consider `CCCOC(=O)c1ccc(O)cc1` [propylparaben], for which the MIC in test [1] (ATCC16404, 72 h, Table 23, propylparaben with BIT, A. niger 16404, PDB, 3 days, alone where Qa = 0, read-out: Qb (second component at end point, MIC)) was 1000 µg/mL; in test [2] (ATCC15442, Table 23, propylparaben with BIT, 24 hours, alone where Qa = 0, read-out: Qb (second component at end point, MIC)), 10000 µg/mL. Also, the “SI (synergy index)” value is listed as 1.00 in test [1] (Table 23, A. niger 16404, PDB, 3 days) and 1.00 in test [2] (Table 23, 24 hours).

Turning to Benzalkonium chloride, the “SI (calculated synergy index)” value in test [1] (Table 8, A. niger 16404, PDB, 1 week) is given as 1.00; in test [2] (Table 8, 48 hours) it was 1.00. Besides, the “Qb: end-point activity (MIC) of second component in the mixture (alone, QB, where Qa = 0)” value in test [1] (Table 8, A. niger 16404, PDB, 1 week, B = Benzalkonium chloride) is given as 200 ppm; in test [2] (Table 8, 48 hours, B = Benzalkonium chloride), 40 ppm.

For the compound zinc pyrithione, the “SI (synergy index)” value in test [1] (Table 28, A. niger 16404, PDB, 1 week) was 1.00; in test [2] (Table 28, 48 hours), 1.00. Also, the “Qb (second component at end point, MIC)” value is recorded as 8 ppm in test [1] (Table 28, zinc pyrithione with BIT, A. niger 16404, PDB, 1 week, alone where Qa = 0) and 80 ppm in test [2] (Table 28, zinc pyrithione with BIT, 48 hours, alone where Qa = 0).
